Measurements published in DBAASP.
≈ marks a conversion by molar mass, not a printed value.

What was measured:
Experiment in all cases: ≥ marks a high value that may be exact or a test limit, other limits are often not marked, values filed in µg/mL are converted to µM
[1] = test system: Pseudomonas aeruginosa
[2] = test system: Staphylococcus aureus
[3] = test system: Staphylococcus aureus MR
[4] = test system: Escherichia coli
[5] = test system: Pseudomonas aeruginosa ATCC 27853
[6] = test system: Escherichia coli ML-35p
[7] = test system: Staphylococcus aureus ATCC 2592
[8] = test system: Staphylococcus aureus ATCC 43300
[9] = test system: Bacillus subtilis
[10] = test system: Candida albicans ATCC 2002
[11] = test system: Pseudomonas aeruginosa PAO1
[12] = test system: Pseudomonas aeruginosa CMCCB 10104
[13] = test system: Staphylococcus aureus ATCC 25923
[14] = test system: Escherichia coli ATCC 25922
[15] = test system: Leuconostoc lactis
[16] = test system: Listeria innocua
[17] = test system: Streptococcus uberis
[18] = test system: Micrococcus luteus
[19] = test system: Pasteurella multocida
[20] = test system: Staphylococcus epidermidis
[21] = test system: Bacillus cereus

With CC[C@H](C)[C@H](NC(=O)[C@H](C)NC(=O)[C@H](CC(C)C)NC(=O)[C@H](CS)NC(=O)[C@H](Cc1cnc[nH]1)NC(=O)[C@H](C)N)C(=O)NCC(=O)N[C@@H](CCCN=C(N)N)C(=O)N[C@@H](CCCCN)C(N)=O [AHCLAIGRK] the MIC [1] was greater than 51.6 µM, the MIC [2] was 25.8 µM and the MIC [3] was no less than 51.6 µM. The MIC [4] was 25.8 µM.

For CC[C@H](C)[C@H](NC(=O)[C@H](C)NC(=O)[C@@H](NC(=O)[C@@H]1CCCN1C(=O)[C@H](CC(C)C)NC(=O)[C@@H](NC(=O)[C@H](CO)NC(=O)[C@@H](NC(=O)[C@H](C)NC(=O)[C@H](CCSC)NC(=O)[C@H](CCCCN)NC(=O)[C@H](CC(C)C)NC(=O)[C@@H](NC(=O)[C@@H]1CCCN1C(=O)CNC(=O)[C@@H](NC(=O)[C@@H](N)Cc1ccccc1)[C@@H](C)CC)C(C)C)[C@@H](C)O)[C@@H](C)CC)[C@@H](C)O)C(=O)N[C@H]1CSSC[C@@H](C(=O)O)NC(=O)[C@H](CCCCN)NC(=O)[C@H](CCCCN)NC(=O)[C@H](Cc2ccccc2)NC(=O)CNC(=O)[C@H](CCCCN)NC1=O [FIGPVLKMATSILPTAICKGFKKC], the MIC [5] was 1.95 µM (≈ 5 µg/mL), the MIC [6] was 19.5 µM (≈ 50 µg/mL) and the MIC [7] was 1.95 µM (≈ 5 µg/mL). For the same compound, the MIC [8] was 3.9 µM (≈ 9.99 µg/mL), the MIC [9] was 7.79 µM (≈ 20 µg/mL) and the MIC [10] was 3.9 µM (≈ 9.99 µg/mL). For the same compound, the MIC [11] was 3.9 µM (≈ 9.99 µg/mL).

CC[C@H](C)[C@H](NC(=O)CN)C(=O)N[C@@H](CC(C)C)C(=O)N[C@@H](CO)C(=O)NCC(=O)N[C@H](C(=O)N[C@@H](CC(C)C)C(=O)NCC(=O)N[C@@H](CCSC)C(=O)NCC(=O)N[C@@H](CCCCN)C(=O)N[C@@H](CCCCN)C(=O)N[C@H](C(=O)N[C@H](C(=O)N[C@H]1CSSC[C@@H](C(=O)O)NC(=O)[C@H](CC(C)C)NC(=O)CNC(=O)[C@H](CCCN=C(N)N)NC(=O)[C@H](CC(C)C)NC(=O)CNC1=O)C(C)C)[C@@H](C)CC)C(C)C [GILSGVLGMGKKIVCGLRGLC] was tested, and the MIC [12] was 6.84 µM (≈ 14.2 µg/mL), the MIC [13] was 1.74 µM (≈ 3.6 µg/mL) and the MIC [14] was 3.47 µM (≈ 7.19 µg/mL). The MIC [10] was 3.47 µM (≈ 7.19 µg/mL).

Compound CC[C@H](C)[C@H](NC(=O)[C@@H](NC(=O)[C@H](C)NC(=O)[C@H](Cc1ccccc1)NC(=O)[C@H](CC(C)C)NC(=O)CN)C(C)C)C(=O)N[C@@H](CCCCN)C(=O)N[C@@H](CCCCN)C(=O)N[C@H](C(=O)N[C@@H](C)C(=O)N[C@@H](CO)C(=O)N[C@H](C(=O)N[C@H](C(=O)N[C@@H](CCCCN)C(=O)NCC(=O)N[C@@H](CC(C)C)C(N)=O)[C@@H](C)CC)C(C)C)C(C)C [GLFAVIKKVASVIKGL] has an MIC [15] of 1.83 µM (≈ 3 µg/mL), an MIC [16] of 7.3 µM (≈ 12 µg/mL) and an MIC [17] of 15.2 µM (≈ 25 µg/mL). For the same compound, the MIC [18] was 3.65 µM (≈ 6 µg/mL), the MIC [2] was 7.3 µM (≈ 12 µg/mL) and the MIC [19] was no less than 60.9 µM. The MIC [20] was 3.65 µM (≈ 6 µg/mL), the MIC [21] was 15.2 µM (≈ 25 µg/mL) and the MIC [4] was 30.4 µM (≈ 50 µg/mL).

Compound CC[C@H](C)[C@H](NC(=O)[C@H](CC(=O)O)NC(=O)[C@H](Cc1ccccc1)NC(=O)[C@H](CC(C)C)NC(=O)CN)C(=O)N[C@H](C(=O)N[C@@H](CCCCN)C(=O)N[C@@H](CCCCN)C(=O)N[C@H](C(=O)N[C@@H](C)C(=O)N[C@@H](CO)C(=O)N[C@H](C(=O)N[C@H](C(=O)NCC(=O)NCC(=O)N[C@@H](CC(C)C)C(N)=O)C(C)C)C(C)C)C(C)C)[C@@H](C)CC [GLFDIIKKVASVVGGL] has an MIC [15] of 1.86 µM (≈ 3 µg/mL), an MIC [16] of no less than 61.9 µM and an MIC [17] of 7.43 µM (≈ 12 µg/mL). For the same compound, the MIC [18] was 7.43 µM (≈ 12 µg/mL), the MIC [2] was 15.5 µM (≈ 25 µg/mL) and the MIC [19] was no less than 61.9 µM. The MIC [20] was 15.5 µM (≈ 25 µg/mL), the MIC [21] was 15.5 µM (≈ 25 µg/mL) and the MIC [4] was greater than 61.9 µM.

With CC[C@H](C)[C@H](NC(=O)[C@H](CO)NC(=O)CNC(=O)[C@H](C)NC(=O)[C@@H](NC(=O)[C@H](Cc1cnc[nH]1)NC(=O)CNC(=O)[C@H](C)NC(=O)[C@@H](NC(=O)[C@H](CCCCN)NC(=O)[C@H](CCCCN)NC(=O)[C@@H](NC(=O)[C@@H](NC(=O)[C@H](CC(=O)O)NC(=O)[C@H](Cc1ccccc1)NC(=O)[C@H](CC(C)C)NC(=O)CN)[C@@H](C)CC)C(C)C)[C@@H](C)CC)[C@@H](C)CC)C(N)=O [GLFDIVKKIAGHIAGSI] the MIC [15] was 6.9 µM (≈ 12 µg/mL), the MIC [16] was no less than 57.5 µM and the MIC [17] was no less than 57.5 µM. The MIC [18] was no less than 57.5 µM, the MIC [2] was 28.8 µM (≈ 50 µg/mL) and the MIC [19] was no less than 57.5 µM. For the same compound, the MIC [20] was no less than 57.5 µM, the MIC [21] was no less than 57.5 µM and the MIC [4] was greater than 57.5 µM.

CC[C@H](C)[C@H](NC(=O)[C@@H](NC(=O)[C@H](CC(=O)O)NC(=O)[C@H](Cc1ccccc1)NC(=O)[C@H](CC(C)C)NC(=O)CN)C(C)C)C(=O)N[C@@H](C)C(=O)N[C@@H](CCCCN)C(=O)N[C@H](C(=O)N[C@@H](C)C(=O)N[C@@H](CO)C(=O)N[C@H](C(=O)N[C@H](C(=O)N[C@@H](CCCCN)C(=O)N[C@@H](CCCCN)C(=O)N[C@@H](CC(C)C)C(N)=O)[C@@H](C)CC)C(C)C)C(C)C [GLFDVIAKVASVIKKL] gave an MIC [15] of 3.53 µM (≈ 6 µg/mL), an MIC [16] of 14.7 µM (≈ 25 µg/mL) and an MIC [17] of 7.05 µM (≈ 12 µg/mL). It also gave an MIC [18] of 7.05 µM (≈ 12 µg/mL), an MIC [2] of 3.53 µM (≈ 6 µg/mL) and an MIC [19] of no less than 58.8 µM. For the same compound, the MIC [20] was 3.53 µM (≈ 6 µg/mL), the MIC [21] was 7.05 µM (≈ 12 µg/mL) and the MIC [4] was 29.4 µM (≈ 50 µg/mL).

CC[C@H](C)[C@H](NC(=O)CNC(=O)[C@H](CCCCN)NC(=O)CNC(=O)[C@H](C)NC(=O)[C@H](Cc1ccccc1)NC(=O)[C@H](CCCCN)NC(=O)[C@H](CO)NC(=O)[C@H](Cc1ccccc1)NC(=O)[C@H](CC(C)C)NC(=O)CN)C(=O)N[C@@H](CCCCN)C(=O)N[C@@H](CC(N)=O)C(=O)N[C@@H](Cc1ccccc1)C(=O)N[C@@H](CC(C)C)C(=O)N[C@@H](CC(N)=O)C(=O)N[C@@H](CCCCN)C(=O)NCC(=O)N[C@H](C(=O)N[C@@H](CCCCN)C(=O)N[C@@H](Cc1cnc[nH]1)C(=O)N[C@H](C(=O)NCC(=O)N[C@@H](CCCCN)C(=O)N[C@@H](CCC(=O)O)C(=O)O)[C@@H](C)CC)C(C)C [GLFSKFAGKGIKNFLNKGVKHIGKE] showed an MIC [12] of 0.773 µM (≈ 2.1 µg/mL), an MIC [13] of 1.55 µM (≈ 4.2 µg/mL) and an MIC [14] of 1.55 µM (≈ 4.2 µg/mL). It also gave an MIC [10] of 0.773 µM (≈ 2.1 µg/mL).

CC[C@H](C)[C@H](NC(=O)[C@@H](NC(=O)CNC(=O)[C@@H](NC(=O)[C@@H](NC(=O)[C@H](Cc1cnc[nH]1)NC(=O)[C@@H]1CCCN1C(=O)[C@H](CC(C)C)NC(=O)[C@@H](NC(=O)[C@H](Cc1cnc[nH]1)NC(=O)[C@H](CCCCN)NC(=O)[C@H](C)NC(=O)[C@@H](NC(=O)[C@H](CO)NC(=O)CNC(=O)[C@H](CC(C)C)NC(=O)[C@@H](NC(=O)[C@H](CO)NC(=O)[C@H](CC(C)C)NC(=O)[C@H](CC(C)C)NC(=O)CN)C(C)C)C(C)C)C(C)C)C(C)C)C(C)C)C(C)C)C(=O)N[C@@H](C)C(=O)N[C@@H](CCC(=O)O)C(=O)N[C@@H](Cc1cnc[nH]1)C(=O)N[C@@H](CC(C)C)C(N)=O [GLLSVLGSVAKHVLPHVVGVIAEHL] showed an MIC [15] of 4.91 µM (≈ 12.5 µg/mL), an MIC [16] of 9.82 µM (≈ 25 µg/mL) and an MIC [17] of 9.82 µM (≈ 25 µg/mL). The MIC [18] was 4.91 µM (≈ 12.5 µg/mL), the MIC [2] was 9.82 µM (≈ 25 µg/mL) and the MIC [19] was 19.6 µM (≈ 50 µg/mL). The MIC [20] was no less than 39.3 µM, the MIC [21] was no less than 39.3 µM and the MIC [4] was greater than 39.3 µM.

For CC[C@H](C)[C@H](NC(=O)[C@@H](NC(=O)CN)C(C)C)C(=O)N[C@@H](CC(=O)O)C(=O)N[C@@H](C)C(=O)N[C@@H](C)C(=O)N[C@@H](CCCCN)C(=O)N[C@@H](CCCCN)C(=O)N[C@H](C(=O)N[C@H](C(=O)N[C@@H](CC(N)=O)C(=O)N[C@H](C(=O)N[C@@H](CC(C)C)C(=O)N[C@@H](CCCCN)C(=O)N[C@@H](CC(N)=O)C(=O)N[C@@H](CC(C)C)C(=O)N1CCC[C@H]1C(N)=O)C(C)C)C(C)C)C(C)C [GVIDAAKKVVNVLKNLP], the MIC [15] was 1.69 µM (≈ 3 µg/mL), the MIC [16] was 28.1 µM (≈ 50 µg/mL) and the MIC [17] was 7.03 µM (≈ 12.5 µg/mL). The MIC [18] was 14.1 µM (≈ 25 µg/mL), the MIC [2] was 14.1 µM (≈ 25 µg/mL) and the MIC [19] was no less than 56.2 µM. It also gave an MIC [20] of 7.03 µM (≈ 12.5 µg/mL), an MIC [21] of 14.1 µM (≈ 25 µg/mL) and an MIC [4] greater than 56.2 µM.

For CC(C)C[C@@H]1NC(=O)[C@H](CCCN=C(N)N)NC(=O)[C@H](CC(C)C)NC(=O)[C@H](CC(C)C)NC(=O)[C@H](Cc2c[nH]c3ccccc23)NC(=O)[C@H](C(C)C)NC(=O)[C@H](Cc2ccc(O)cc2)NC(=O)[C@H](CC(C)C)NC(=O)[C@H](C(C)C)NC(=O)[C@H](CCC(N)=O)NC(=O)[C@@H](NC(=O)[C@H](Cc2ccccc2)NC(=O)[C@H](CC(N)=O)NC(=O)[C@H](CC(N)=O)NC(=O)[C@@H](N)CCCCN)CSSC[C@@H](C(=O)N[C@@H](Cc2ccccc2)C(=O)N[C@H](C(=O)N[C@@H](CCCCN)C(=O)N[C@@H](Cc2ccccc2)C(=O)N[C@@H](CO)C(=O)N[C@@H](CCCCN)C(=O)N[C@@H](CC(=O)O)C(=O)N[C@H](C(=O)N[C@@H](CCC(=O)O)C(=O)N[C@H](C(=O)O)[C@@H](C)O)C(C)C)C(C)C)NC(=O)[C@H](CCC(N)=O)NC(=O)[C@H](CCCCN)NC(=O)CNC1=O [KNNFCQVLYVWLLRLGKQCFVKFSKDVET], the MIC [12] was 28.5 µM (≈ 99.9 µg/mL), the MIC [13] was greater than 28.5 µM and the MIC [14] was greater than 28.5 µM. It also gave an MIC [10] of 28.5 µM (≈ 99.9 µg/mL).
